Structures are written as SMILES. Like-named read-outs stand apart in the source and are kept apart here.

One test has as its system Smad2/3 phosphorylation. The experiment in a line: Phospho-Smad2/3 Inhibition Assay in Panc-1 (western blot). Format: cell-based. As to conditions: Homo sapiens; for inhibition at 10 µM: 3 hours, PANC-1 stimulated with 10 ng/ml TGF-b1 for 1 hour, read-out: % inh of Smad2/3 phosphorylation in PANC-1. How it is done: (§1) Cell lines: Human tumor-derived pancreatic cancer cell line Panc-1 and mouse muscle myoblast C2C12 were purchased from American Type Culture Collection and grown in complete DMEM-High Glucose, supplemented with penicillin (100 U/mL), streptomycin (100 μg/mL), and 10% heat-inactivated FBS at 37° C. in a humidified incubator with 5% CO2.
(§2) Method: Cells were plated at 350000 cells/well density in a 12-well plate, allowed 3 hours to adhere to the plate, then starved in the appropriate medium in the presence of 0.5% FBS overnight. The small molecules to be tested were added to the cells in the final concentration of 10 μM in the presence of 0.3% DMSO for 3 hours incubation at 37° C. For IC50 value determination, serial dilutions of compounds were added to cells under the same conditions. Next, Panc-1 cells were stimulated with 10 ng/ml TGF-b1 for 1 hour, and C2C12 cells were stimulated with 10 ng/ml TGF-b1 for 20 minutes (recombinant human TGF-b1, R&D Systems). After stimulation cells were lysed with lysis buffer containing 1% Triton X-100, EDTA, and Halt™ Protease & Phosphatase Inhibitor Cocktail (Thermo Scientific). Protein concentration was assessed by BCA protein assay (Thermo Scientific). Phosphorylation level of Smad2/Smad3 was determined by western blot.
(§3) Western blot protocol: Equal amounts of protein (15-50 μg) were separated by SDS-PAGE and transferred to nitrocellulose membranes (Invitrogen by Thermo Fisher Scientific). The membrane was stained with Ponceau S Stain (Boston BioProducts) to verify uniform protein loading. Membranes were blocked with 10% milk and phosphorylation levels of Smad2/Smad3 were assessed by incubating overnight at 4° C. with the following antibodies: Phospho-Smad2 (Ser465/467) and Phosph-Smad3 (Ser423/425), both from Cell Signaling Technology. Then the membranes were incubated with HRP-conjugated secondary antibody (Jackson Immunoresearch, West Grove, PA). Bands were incubated in Amersham ECL Prime Western Blotting Detection Reagent (GE Healthcare) and visualized using the ChemiDoc MP imaging system (Bio-Rad).

Another test concerns MAPK p38. The experiment in a line: MAPK p38 Activation Assay in Panc-1 (western blot). Format: cell-based, Human. Further details: key: Y = yes; N = No. As to conditions: at 10 μM. How it is done:
as §1
as §2, with “MAPK p38” for “Smad2/Smad3”
as §3, with “antibody: Phospho-p38 MAPK (Thr180/Tyr182),” for “antibodies: Phospho-Smad2 (Ser465/467) and Phosph-Smad3 (Ser423/425), both”
On the technique in general: A western blot detects proteins with antibodies after separation by electrophoresis.

In a further test the target is Rac-1 (Homo sapiens (Human), UniProt P63000). The experiment in a line: Ras GTP Binding Domain Inhibition Assay, Rac-1. How it is done: A Ras Superfamily Activity Assay (as disclosed in International Application No. PCT/US2018/038613, filed Jun. 20, 2018, which is incorporated by reference in its entirety) was used as a specific assay to evaluate compounds against the following for the following Ras Superfamily proteins: KRas wild type, KRas Q61H mutant, KRas G12C mutant, KRas G12D mutant, Rac-1, and Rho-A.
Buffer-I: • 25 mM Tris-HCl, pH 7.4 • 27 mM KCl • 137 mM NaCl • 1 mM MgCl2 • 1 mM DTT
Buffer-II: • 50 mM Tris-HCl, pH 7.0 • 1 mM MgCl2 • 1 mM DTT
The small GTPases proteins: KRas wild type. KRas Q61H mutant, KRas G12C mutant, KRas G12D mutants, Rac-1, and Rho-A were expressed as His-tagged proteins. In addition, the Guanosine nucleotide Exchange Factor (GEF) Sos protein (residues 556-1049) was expressed as a His-tagged protein. In cells, the guanine nucleotide exchange factor Sos protein promotes activation of Ras proteins by stimulating an exchange of GDP for GTP. The inclusion of Sos to the Ras GTP binding domain inhibition assay may be considered as an alternative representation of physiological cellular conditions for evaluating the inhibitory activity of some of the tested small molecules.
For the assay, all purified small GTPases proteins were diluted in Buffer-I or Buffer-II to a final concentration of 10-30 μg/mL. 200 μL of each diluted protein was added to a nickel-coated 96-well plate and incubated overnight at 4° C. Then the protein solution was discarded and 200 μL of Buffer-I or Buffer-II was added to each well in the presence of 1% DMSO. Compounds to be tested were added to the protein-coated wells at final concentration of 20 μM, and incubated for 3 hours at room temperature with and without 10-30 μg/mL of Sos added to the final hour of the incubation. When performing IC50 measurements a serial dilution of all tested concentrations was added. Then Cy3-GTP or Cy5-GTP was added to each well to a final concentration of 100 nM. The labeled GTP was incubated for 45 minutes at room temperature. Following GTP incubation, wells were washed 3× in Buffer-I or Buffer-II and 200 μL of Buffer-I or Buffer-II was added to each well. Following washes, the amount of bound labeled-GTP was measured using a SpectraMax M3 (Molecular Devices).

[1] abbreviates: + SOS, read-out: Rac-1 + SOS: % inh.
The mark [2] stands for this setting: without SOS, read-out: Rac-1: % inh.

Take `COc1cccc(-c2sc3nc(-c4nccn4C)nc(NC4CCC(OC)C4)c3c2C)c1F` (racemic) [Compound 10, rac-6-(2-Fluoro-3-methoxyphenyl)-N-((1R,3S)-3-methoxycyclopentyl)-5-methyl-2-(1-methyl-1H-imidazol-2-yl)thieno[2,3-d]pyrimidin-4-amine and rac-6-(2-Fluoro-3-methoxyphenyl)-N-((1R,3R)-3-methoxycyclopentyl)-5-methyl-2-(1-methyl-1H-imidazol-2-yl)thieno[2,3-d]pyrimidin-4-amine]: in the test on Smad2/3 phosphorylation, the inhibition at 10 µM was in the range of 1 to 25%. In addition, the “Activation of MAPK p38 in PANC-1” value with MAPK p38 is listed as “Y”. Further, the inhibition at 20 µM at Rac-1 (setting [1]) and at Rac-1 (setting [2]) was 46 to 75% each time.
With `COCCn1ccc(-c2sc3nc(-c4nccn4C)nc(N[C@@H]4CC[C@H](OC)C4)c3c2C)n1` (racemic) [Compound 39, rac-N-((1R,3S)-3-Methoxycyclopentyl)-6-(1-(2-methoxyethyl)-1H-pyrazol-3-yl)-5-methyl-2-(1-methyl-1H-imidazol-2-yl)thieno[2,3-d]pyrimidin-4-amine], the inhibition at 10 µM in the test with Smad2/3 phosphorylation came out at 0%. Moreover, the “Activation of MAPK p38 in PANC-1” value with MAPK p38 is reported as “Y”. Moreover, at Rac-1 (setting [2]), the inhibition at 20 µM was in the range of 26 to 45%.
For `COc1cccc(-c2sc3nc(-c4nccn4C)nc(N[C@@H]4CC[C@@H](OC)C4)c3c2-c2ccccc2)c1F` (racemic) [Compound 41, 6-(2-Fluoro-3-methoxyphenyl)-N-((1R,3R)-3-methoxycyclopentyl)-2-(1-methyl-1H-imidazol-2-yl)-5-phenylthieno[2,3-d]pyrimidin-4-amine] the same measures were 76 to 100%, “Y” and 1 to 25%.
Taken in the same sequence, the figures for `COCCOc1nc(-c2nccn2C)nc2sc(-c3ccn(C(C)C)n3)c(C)c12` [Compound 30, 6-(1-Isopropyl-1H-pyrazol-3-yl)-4-(2-methoxyethoxy)-5-methyl-2-(1-methyl-1H-imidazol-2-yl)thieno[2,3-d]pyrimidine] were 0%, “N” and 0%.
`CO[C@H]1CC[C@@H](Nc2nc(-c3nccn3C)nc3sc(-c4ccn(C(C)C)n4)c(C)c23)C1` (racemic) [Compound 12, rac-6-(1-Isopropyl-1H-pyrazol-3-yl)-N-((1R,3S)-3-methoxycyclopentyl)-5-methyl-2-(1-methyl-1H-imidazol-2-yl)thieno[2,3-d]pyrimidin-4-amine]: the inhibition at 10 µM with Smad2/3 phosphorylation fell in the range of 1 to 25%. Further, in the test with MAPK p38, the “Activation of MAPK p38 in PANC-1” value is “Y”. In addition, the inhibition at 20 µM on Rac-1 (setting [1]) and at Rac-1 (setting [2]) was 46 to 75% throughout.
On to `CO[C@H]1CC[C@@H](Nc2nc(-c3nccn3C)nc3sc(-c4ccn(C)n4)c(-c4ccccc4)c23)C1` (racemic) [Compound 5, rac-N-((1R,3S)-3-Methoxycyclopentyl)-2-(1-methyl-1H-imidazol-2-yl)-6-(1-methyl-1H-pyrazol-3-yl)-5-phenylthieno[2,3-d]pyrimidin-4-amine], for which the inhibition at 10 µM in the test with Smad2/3 phosphorylation fell in the range of 76 to 100%. Further, the IC50 with Smad2/3 phosphorylation (PANC-1, TGF-b1 stimulated) is 5 to 10 µM. For the same compound, in the test on MAPK p38, the “Activation of MAPK p38 in PANC-1” value is listed as “Y”. For the same compound, the inhibition at 20 µM at Rac-1 (setting [1]) and on Rac-1 (setting [2]) was 46 to 75% throughout.
In the case of `COc1cc(Cn2c(-c3nccn3C)nc3sc(-c4ccn(C(C)C)n4)c(C)c3c2=O)ncn1` [Compound 35, 6-(1-Isopropyl-1H-pyrazol-3-yl)-3-((6-methoxypyrimidin-4-yl)methyl)-5-methyl-2-(1-methyl-1H-imidazol-2-yl)thieno[2,3-d]pyrimidin-4(3H)-one], the inhibition at 10 µM with Smad2/3 phosphorylation was 0%. The “Activation of MAPK p38 in PANC-1” value in the test on MAPK p38 is “N”. Moreover, the inhibition at 20 µM on Rac-1 (setting [2]) came to 0%.
On to `COc1cccc(-c2sc3nc(-c4nccn4C)nc(N[C@@H]4CC[C@@H](OC)C4)c3c2C)c1F` (racemic) [Compound 43, rac-6-(2-Fluoro-3-methoxyphenyl)-N-((1R,3R)-3-methoxycyclopentyl)-5-methyl-2-(1-methyl-1H-imidazol-2-yl)thieno[2,3-d]pyrimidin-4-amine], for which the inhibition at 10 µM in the test with Smad2/3 phosphorylation lay within 76 to 100%. For the same compound, in the test on MAPK p38, the “Activation of MAPK p38 in PANC-1” value is reported as “Y”. Besides, the inhibition at 20 µM on Rac-1 (setting [2]) lay within 1 to 25%.
As for `COC1CCN(c2nc(-c3nccn3C)nc3sc(-c4ccn(C)n4)c(-c4ccccc4)c23)CC1` [Compound 6, 4-(4-Methoxypiperidin-1-yl)-2-(1-methyl-1H-imidazol-2-yl)-6-(1-methyl-1H-pyrazol-3-yl)-5-phenylthieno[2,3-d]pyrimidine], in the test with Smad2/3 phosphorylation, the inhibition at 10 µM is 0%. Also, the “Activation of MAPK p38 in PANC-1” value in the test on MAPK p38 was “N”. Besides, the inhibition at 20 µM on Rac-1 (setting [1]) and on Rac-1 (setting [2]) was 26 to 45% throughout.
Regarding `CO[C@H]1C[C@H](CNc2nc(-c3nccn3C)nc3sc(-c4ccn(C(C)C)n4)c(C)c23)C1` [Compound 16, 6-(1-Isopropyl-1H-pyrazol-3-yl)-N-(((1r,3r)-3-methoxycyclobutyl)methyl)-5-methyl-2-(1-methyl-1H-imidazol-2-yl)thieno[2,3-d]pyrimidin-4-amine], the inhibition at 10 µM in the test with Smad2/3 phosphorylation lay in the range of 1 to 25%. In the test on MAPK p38, the “Activation of MAPK p38 in PANC-1” value was “Y”. Moreover, the inhibition at 20 µM on Rac-1 (setting [2]) lay in the range of 26 to 45%.
For `COCCOCCNc1nc(-c2nccn2C)nc2sc(-c3ccn(C(C)C)n3)c(C)c12` [Compound 21, 6-(1-Isopropyl-1H-pyrazol-3-yl)-N-(2-(2-methoxyethoxy)ethyl)-5-methyl-2-(1-methyl-1H-imidazol-2-yl)thieno[2,3-d]pyrimidin-4-amine] the same measures were 0%, “Y” and 76 to 100%.

Usually IC50 stands for the point on the concentration scale where inhibition reaches its midpoint.

The values are drawn from US20240124483A1, “Methods for the Treatment of Fibrotic Disease” (SHY Therapeutics, LLC, priority 2021, published 2024).
